Test results from patent US7001921B1, “Cell adhesion inhibitors” (Biogen Idec MA Inc., priority 1995, dated 2006).

Target: T1, VLA4 (Homo sapiens, UniProt P05556+P13612)
T1 construct: endogenous in cells; host or cells: Ramos cells
Assay: Inhibition of VLA4-dependent adhesion to BSA-CS1 (labelled Ramos cells)
Assay type: cell-based
Settings: binding of BCECF-AM labelled Ramos cells to CS1 peptide-coated wells, 2 mM MnCl2, 30 minutes at room temperature; IC50 range
Excerpt: For example, the cell adhesion inhibitory activity of these compounds may be measured by determining the concentration of inhibitor required to block the binding of VLA-4-expressing cells to fibronectin- or CS1-coated plates. In this assay microtiter wells are coated with either fibronectin (containing the CS-1 sequence) or CS-1. If CS-1 is used, it must be conjugated to a carrier protein, such as bovine serum albumin, in order to bind to the wells. Once the wells are coated, varying concentrations of the test compound are then added together with appropriately labelled, VLA-4-expressing cells. Alternatively, the test compound may be added first and allowed to incubate with the coated wells prior to the addition of the cells. The cells are allowed to incubate in the wells for at least 30 minutes. Following incubation, the wells are emptied and washed. Inhibition of binding is measured by quantitating the fluorescence or radioactivity bound to the plate for each of the various concentrations of test compound, as well as for controls containing no test compound.
VLA-4-expressing cells that may be utilized in this assay include Ramos cells, Jurkat cells, A375 melanoma cells, as well as human peripheral blood lymophocytes (PBLs). The cells used in this assay may be fluorescently or radioactively labelled.
This assay was used to assess the potency of VLA4-directed inhibitory compounds of this invention.
We dissolved BSA-SMCC (Pierce Chemical, Rockford, Ill.; Catalog # 77115) in H2O at a concentration of 10 mg/mL. [SEQ ID NO:4]: […](“Cys-Tyr-CS1 peptide”), which we synthesized by conventional solid phase chemistry and purified by HPLC, was dissolved in 10 mM HEPES pH 5, 50 mM NaCl and 0.1 mM EDTA also at a concentration of 10 mg/mL. We then mixed 500 μL of BSA-SMCC, 250 μL of Cys-Tyr-CS1 peptide and 75 μL of […] and allowed the conjugation reaction to proceed for 30 minutes. We stopped the reaction by adding 1 μL of beta-mercaptoethanol. Samples were analyzed for cross-linking by SDS-PAGE. This reaction produced multiple molecules of the Cys-Tyr-CS1 peptide conjugate to each BSA molecule.
We coated the wells of a Linbro titertek polystyrene 96-well flat bottom plate (Flow Laboratories, Maclean, Va.; catalog #76-231-05) with 100 μL of the above-described BSA-CS1 solution diluted to 1 μg/mL in 0.05 M NaHCO3 (15 mM NaHCO3, 35 mM Na2CO3) pH 9.2. Some wells were not coated with CS1 in order to assess non-specific cell binding (NSB). The plate was then incubated overnight at 4° C.
Following this incubation, the contents of the wells were removed by inverting and blotting the plate. All of the wells were then blocked with 100 μL of 1% BSA in PBS, 0.02% NaN3, for a minimum of one hour at room temperature.
3. Preparation of Fluorescently Labelled Ramos Cells Ramos cells are grown, maintained and labelled in RPMI 1640 culture medium containing 1% BSA. Just prior to running the assay, we added 2′,7′-bis-(2-carboxyethyl)5 (and -6) carboxyfluorescein acetoxymethyl ester (“BCECF-AM”; Molecular Probes Inc., Eugene, Oreg.; catalog #B-1150) to a final concentration of 2 μM to a culture of Ramos cells (4×10^6 cells/mL). We incubated the cells for 20 minutes at 37° C.
Following labelling, the cells were washed twice in assay buffer (24 mM TRIS, 137 mM NaCl, 2.7 mM KCl, pH 7.4, containing 0.1% BSA and 2 mM glucose) to remove any cations originating from the culture medium. The cells were then resuspended in assay buffer to 4×10^6 cells/mL and 2 mM MnCl2 was added to upregulate VLA4 on the surface of the cells.
Immediately prior to running the assay, we removed the BSA blocking solution from the 96-well plates and washed the wells with 100 μL of assay buffer. We then added to each well 25 μL of test cell adhesion inhibitory compound at 2× the final concentration and 25 μL of the labelled Ramos cells. Final concentrations were selected across a range of anticipated IC50s, usually between 0.01 nM–10 μM. […]

T1 sequence (P13612 34-1032): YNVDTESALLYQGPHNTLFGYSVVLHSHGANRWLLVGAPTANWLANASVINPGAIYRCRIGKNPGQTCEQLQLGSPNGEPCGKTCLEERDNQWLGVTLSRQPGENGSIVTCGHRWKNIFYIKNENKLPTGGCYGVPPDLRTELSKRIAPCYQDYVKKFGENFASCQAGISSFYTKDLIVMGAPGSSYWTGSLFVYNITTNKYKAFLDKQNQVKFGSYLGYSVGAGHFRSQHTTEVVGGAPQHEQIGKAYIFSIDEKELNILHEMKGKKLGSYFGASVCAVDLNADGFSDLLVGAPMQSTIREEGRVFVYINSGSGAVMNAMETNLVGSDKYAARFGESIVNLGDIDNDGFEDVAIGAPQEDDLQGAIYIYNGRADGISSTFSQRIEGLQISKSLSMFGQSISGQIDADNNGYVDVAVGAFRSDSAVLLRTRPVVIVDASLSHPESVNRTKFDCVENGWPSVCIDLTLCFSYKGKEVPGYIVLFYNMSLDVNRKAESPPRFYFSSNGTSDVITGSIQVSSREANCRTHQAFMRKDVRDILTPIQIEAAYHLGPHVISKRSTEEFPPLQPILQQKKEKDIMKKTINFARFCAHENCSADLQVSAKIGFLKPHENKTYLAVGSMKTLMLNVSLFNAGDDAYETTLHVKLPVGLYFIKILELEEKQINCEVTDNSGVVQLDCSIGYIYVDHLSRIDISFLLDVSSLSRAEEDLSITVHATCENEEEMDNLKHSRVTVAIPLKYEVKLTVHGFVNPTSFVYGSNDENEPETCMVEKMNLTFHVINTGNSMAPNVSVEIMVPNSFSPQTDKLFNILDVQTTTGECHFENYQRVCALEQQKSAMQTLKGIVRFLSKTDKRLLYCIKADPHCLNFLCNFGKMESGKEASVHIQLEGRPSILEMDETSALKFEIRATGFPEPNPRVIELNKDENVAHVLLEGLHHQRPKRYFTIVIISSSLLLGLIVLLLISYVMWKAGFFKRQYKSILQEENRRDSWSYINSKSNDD
T1 sequence (P05556 21-798): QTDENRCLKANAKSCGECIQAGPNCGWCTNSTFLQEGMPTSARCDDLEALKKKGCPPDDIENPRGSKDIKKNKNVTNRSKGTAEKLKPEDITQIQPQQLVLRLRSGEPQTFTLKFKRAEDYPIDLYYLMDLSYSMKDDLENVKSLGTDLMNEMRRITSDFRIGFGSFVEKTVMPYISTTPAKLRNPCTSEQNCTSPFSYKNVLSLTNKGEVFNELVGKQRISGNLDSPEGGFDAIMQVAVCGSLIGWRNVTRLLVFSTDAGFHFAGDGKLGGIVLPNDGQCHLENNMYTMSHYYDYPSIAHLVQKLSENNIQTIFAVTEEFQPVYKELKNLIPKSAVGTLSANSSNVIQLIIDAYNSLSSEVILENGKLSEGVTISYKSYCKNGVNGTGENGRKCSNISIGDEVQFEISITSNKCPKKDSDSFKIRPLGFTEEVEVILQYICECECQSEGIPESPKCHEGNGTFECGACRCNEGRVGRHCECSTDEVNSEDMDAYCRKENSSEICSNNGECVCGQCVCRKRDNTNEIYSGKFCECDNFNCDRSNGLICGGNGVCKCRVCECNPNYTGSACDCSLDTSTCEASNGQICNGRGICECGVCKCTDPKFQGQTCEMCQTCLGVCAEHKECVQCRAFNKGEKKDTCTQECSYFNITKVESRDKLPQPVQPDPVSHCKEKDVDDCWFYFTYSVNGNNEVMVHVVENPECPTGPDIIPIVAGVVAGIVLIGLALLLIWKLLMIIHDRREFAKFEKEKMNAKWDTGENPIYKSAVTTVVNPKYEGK

| SMILES | IC50 [µM] |
| --- | --- |
| O=C(O)CC(NC(=O)C(Cc1ccccc1)NC(=O)Cc1ccccc1)c1ccccc1 (stereo not shown) [compound 1046] | > 10 |
| CC(C)CC(NC(=O)Cc1ccc(NC(=O)Nc2ccccc2)cc1)C(=O)NC(CC(=O)O)c1ccc2c(c1)OCO2 (stereo not shown) [compound 1050] | < 0.05 |
| CC(C)CC(NC(=O)CCc1ccc(NC(=O)Nc2ccccc2)cc1)C(=O)NC(CC(=O)O)c1ccccc1 (stereo not shown) [compound 1052] | 0.05 to 10 |
| CC(C)CC(C(=O)NC(CC(=O)O)c1ccccc1)N(C)C(=O)Cc1ccc(NC(=O)Nc2ccccc2)cc1 (stereo not shown) [compound 1053] | 0.05 to 10 |
| CC(C)CC(NC(=O)Cc1cccc(NC(=O)Nc2ccccc2)c1)C(=O)NC(CC(=O)O)c1ccccc1 (stereo not shown) [compound 1054] | 0.05 to 10 |
| CC(C)CC(C(=O)NC(CC(=O)O)c1ccc2c(c1)OCO2)N(C)C(=O)Cc1ccc(NC(=O)Nc2ccccc2)cc1 (stereo not shown) [compound 1055] | < 0.05 |
| COc1cc(CC(=O)NC(CC(C)C)C(=O)NC(CC(=O)O)c2ccc3c(c2)OCO3)ccc1NC(=O)Nc1ccccc1 (stereo not shown) [compound 1056] | < 0.05 |
| CC(C)CC(NC(=O)Cc1ccc(NC(=O)Nc2ccccc2)cc1)C(=O)NC(CC(=O)O)c1ccccc1 (stereo not shown) [compound 1060] | 0.05 to 10 |
| CC(C)CC(NC(=O)Cc1ccc(NC(=O)Nc2ccccc2)cc1)C(=O)NC(CC(=O)O)Cc1ccccc1 (stereo not shown) [compound 1063] | 0.05 to 10 |
| CNC(=O)Nc1ccc(CC(=O)NC(CC(C)C)C(=O)NC(CC(=O)O)c2ccc3c(c2)OCO3)cc1 (stereo not shown) [compound 1064] | 0.05 to 10 |
| CC(C)CC(NC(=O)Cc1ccc(NC(=O)NC(C)C)cc1)C(=O)NC(CC(=O)O)c1ccc2c(c1)OCO2 (stereo not shown) [compound 1065] | 0.05 to 10 |
| CC(C)CC(NC(=O)Cc1ccc(NC(=O)NC2CCCCC2)cc1)C(=O)NC(CC(=O)O)c1ccc2c(c1)OCO2 (stereo not shown) [compound 1068] | 0.05 to 10 |
| COc1ccccc1C(CC(=O)O)NC(=O)C(CC(C)C)NC(=O)Cc1ccc(NC(=O)Nc2ccccc2)cc1 (stereo not shown) [compound 1069] | < 0.05 |
| COc1ccccc1C(CC(=O)O)NC(=O)C(CC(C)C)NC(=O)Cc1ccc(O)cc1 (stereo not shown) [compound 1070] | 0.05 to 10 |
| COc1cccc(C(CC(=O)O)NC(=O)C(CC(C)C)NC(=O)Cc2ccc(NC(=O)Nc3ccccc3)cc2)c1 (stereo not shown) [compound 1072] | < 0.05 |
| CC(C)CC(NC(=O)Cc1ccc(NC(=O)OCc2ccccc2)cc1)C(=O)NC(CC(=O)O)c1ccc2c(c1)OCO2 (stereo not shown) [compound 1073] | 0.05 to 10 |
| CC(C)CC(NC(=O)Cc1ccc(NS(=O)(=O)c2ccccc2)cc1)C(=O)NC(CC(=O)O)c1ccc2c(c1)OCO2 (stereo not shown) [compound 1074] | 0.05 to 10 |
| CC(C)CC(NC(=O)Cc1ccc(NC(=O)c2ccccc2)cc1)C(=O)NC(CC(=O)O)c1ccc2c(c1)OCO2 (stereo not shown) [compound 1075] | 0.05 to 10 |
| CCNC(=O)Nc1ccc(CC(=O)NC(CC(C)C)C(=O)NC(CC(=O)O)c2ccc3c(c2)OCO3)cc1 (stereo not shown) [compound 1077] | 0.05 to 10 |
| COc1cccc(NC(=O)Nc2ccc(CC(=O)NC(CC(C)C)C(=O)NC(CC(=O)O)c3ccc4c(c3)OCO4)cc2)c1 (stereo not shown) [compound 1078] | 0.05 to 10 |
| COc1ccccc1NC(=O)Nc1ccc(CC(=O)NC(CC(C)C)C(=O)NC(CC(=O)O)c2ccc3c(c2)OCO3)cc1 (stereo not shown) [compound 1079] | < 0.05 |
| CC(C)CC(NC(=O)Cc1ccc(NC(=O)Nc2cccnc2)cc1)C(=O)NC(CC(=O)O)c1ccc2c(c1)OCO2 (stereo not shown) [compound 1080] | 0.05 to 10 |
| CC(C)CC(NC(=O)Cc1ccccc1)C(=O)NC(CC(=O)O)c1ccccc1 (stereo not shown) [compound 1081] | 0.05 to 10 |
| CC(C)CC(NC(=O)CCCc1ccccc1)C(=O)NC(CC(=O)O)c1ccccc1 (stereo not shown) [compound 1082] | > 10 |
| CC(C)CC(NC(=O)OCc1ccccc1)C(=O)NC(CC(=O)O)c1ccccc1 (stereo not shown) [compound 1085] | > 10 |
| CC(C)CC(NC(=O)Nc1ccccc1)C(=O)NC(CC(=O)O)c1ccccc1 (stereo not shown) [compound 1086] | 0.05 to 10 |

| SMILES | IC50 [µM] |
| --- | --- |
| CC(C)CC(C(=O)NC(CC(=O)O)c1ccccc1)N(C)C(=O)CCc1ccc(O)cc1 (stereo not shown) [compound 1087] | > 10 |
| COc1ccc(C(CC(=O)O)NC(=O)C(CC(C)C)NC(=O)Cc2ccc(NC(=O)Nc3ccccc3)cc2)cc1 (stereo not shown) [compound 1088] | < 0.05 |
| COc1ccc(C(CC(=O)O)NC(=O)C(CCSC)NC(=O)Cc2ccc(NC(=O)Nc3ccccc3)cc2)cc1 (stereo not shown) [compound 1089] | < 0.05 |
| CC(C)CC(NC(=O)Cc1ccc(O)cc1)C(=O)NC(CC(=O)O)c1ccccc1 (stereo not shown) [compound 1091] | 0.05 to 10 |
| COc1ccc(CC(=O)NC(CC(C)C)C(=O)NC(CC(=O)O)c2ccccc2)cc1 (stereo not shown) [compound 1092] | > 10 |
| CC(C)CC(NC(=O)Cc1ccc([N+](=O)[O-])cc1)C(=O)NC(CC(=O)O)c1ccccc1 (stereo not shown) [compound 1093] | > 10 |
| CCCCCCC(=O)NC(CC(C)C)C(=O)NC(CC(=O)O)c1ccccc1 (stereo not shown) [compound 1094] | > 10 |
| CC(C)CC(NC(=O)Cc1ccccc1O)C(=O)NC(CC(=O)O)c1ccccc1 (stereo not shown) [compound 1096] | > 10 |
| CC(C)CC(NC(=O)Cc1cccc(O)c1)C(=O)NC(CC(=O)O)c1ccccc1 (stereo not shown) [compound 1097] | 0.05 to 10 |
| CC(C)CC(NC(=O)Cc1ccc(O)c(O)c1)C(=O)NC(CC(=O)O)c1ccccc1 (stereo not shown) [compound 1098] | > 10 |
| COc1cc(CC(=O)NC(CC(C)C)C(=O)NC(CC(=O)O)c2ccccc2)c(Br)cc1O (stereo not shown) [compound 1100] | 0.05 to 10 |
| CC(C)CC(NC(=O)Cc1ccc(NC(=O)OCc2ccccc2)cc1)C(=O)NC(CC(=O)O)c1ccccc1 (stereo not shown) [compound 1101] | > 10 |
| CC(C)CC(NC(=O)Cc1ccc(N)cc1)C(=O)NC(CC(=O)O)c1ccccc1 (stereo not shown) [compound 1103] | > 10 |
| CC(C)CC(NC(=O)Cc1ccc(NS(=O)(=O)c2ccccc2)cc1)C(=O)NC(CC(=O)O)c1ccccc1 (stereo not shown) [compound 1104] | 0.05 to 10 |
| CC(C)CC(NC(=O)Cc1ccc(NC(=O)c2ccccc2)cc1)C(=O)NC(CC(=O)O)c1ccccc1 (stereo not shown) [compound 1105] | 0.05 to 10 |
| CC(C)CC(NC(=O)CCCCCNC(=O)Nc1ccccc1)C(=O)NC(CC(=O)O)c1ccccc1 (stereo not shown) [compound 1106] | > 10 |
| CC(C)CC(NC(=O)CCCCCNC(=O)NC(C)(C)C)C(=O)NC(CC(=O)O)c1ccccc1 (stereo not shown) [compound 1107] | > 10 |
| CC(C)CC(NC(=O)Nc1ccc(N)cc1)C(=O)NC(CC(=O)O)c1ccccc1 (stereo not shown) [compound 1109] | > 10 |
| CC(C)CC(NC(=O)Nc1ccc(NC(=O)Nc2ccccc2)cc1)C(=O)NC(CC(=O)O)c1ccccc1 (stereo not shown) [compound 1110] | 0.05 to 10 |
| COc1cc(CC(=O)NC(CC(C)C)C(=O)NC(CC(=O)O)c2ccccc2)cc(OC)c1O (stereo not shown) [compound 1111] | > 10 |
| CC(C)CC(NC(=O)Cc1ccc(O)c([N+](=O)[O-])c1)C(=O)NC(CC(=O)O)c1ccccc1 (stereo not shown) [compound 1112] | > 10 |
| CC(C)CC(NC(=O)Cc1cccc([N+](=O)[O-])c1)C(=O)NC(CC(=O)O)c1ccccc1 (stereo not shown) [compound 1113] | > 10 |
| CC(C)CC(C(=O)NC(CC(=O)O)c1ccccc1)N(C)C(=O)Cc1ccccc1 (stereo not shown) [compound 1114] | > 10 |
| CC(C)CC(NC(=O)Cc1ccccc1)C(=O)NC(CC(=O)O)c1ccc(Cl)cc1 (stereo not shown) [compound 1115] | 0.05 to 10 |
| COC(C)C(NC(=O)Cc1ccccc1)C(=O)NC(CC(=O)O)c1ccccc1 (stereo not shown) [compound 1117] | > 10 |
| COc1ccc(CC(NC(=O)Cc2ccccc2)C(=O)NC(CC(=O)O)c2ccccc2)cc1 (stereo not shown) [compound 1122] | > 10 |
